The values below come from patent US20080125432A1 (Devgen NV, priority 2004, published 2008).

Like-named read-outs stand apart in the source and are kept apart here.

The target in the series is T1, hERG potassium channel (Homo sapiens, UniProt Q12809).
T1 construct: host or cells: HEK 293 T-REx
The series can be described thus: Whole cell patch clamp, HEK 293 T-REx HERG cells. In kind it is cell-based. The source says: For this experiment HEK 293 T-REx HERG cells (#23) were used. This cell line made by IonGate is characterized by the inducible expression of the hERG gene. The T-REx™ System (Invitrogen, Karlsruhe, Germany) is a tetracycline-regulated mammalian expression system that uses regulatory elements from the E. coli Tn10-encoded tetracycline (Tet) resistance operon. In the absence of Tet the expression is repressed. Tetracycline regulation in the T-REx™ System is based on the binding of tetracycline to the Tet repressor and derepression of the promoter controlling expression of the hERG gene. Addition of Tet to the cell culture media results in expression of the hERG potassium channel.
To construct the HEK 293 T-REx HERG cell line, the hERG gene was ligated into the inducible expression vector pcDNA4/TO (→pc4TO-HERG) and transfected into HEK 293 T-REx cells (this cell line stably expresses the Tet repressor and was purchased at Invitrogen). Stable cell clones were isolated after selection with Blasticidin (5 μg/ml) and Zeocin™ (300 μg/ml). The clones were electrophysiological characterized after induction with 1 μg/ml Tet.
Experiments were performed using the patch clamp set-up. Technical equipment needed for manipulation of the cells was placed on a vibration-isolated table and shielded with a Faraday cage to minimize electrical noise. The amplifier and control system were placed in a rack outside the Faraday cage. The system consisted of an EPC9 or EPC10 patch clamp amplifier (HEKA, Lambrecht, Germany), and the perfusion system DADVC8 (ALA Scientific, New York, USA) controlled by the Pulse software package (HEKA, Lambrecht, Germany) installed on a personal computer.
The cells used for this experiment were kept in continuous culture under standard conditions (37° C., air supplemented with 5% CO2). The HEK 293 T-REx HERG cells were kept in minimal essential medium (MEM) supplemented with 100 U/ml Penicillin, 100 μg/ml Streptomycin, 10% fetal calf serum (FCS), 1% non-essential amino acids (NEAA), 2.5 μg/ml amphotericin, 300 μg/ml Zeocin™ and 5 μg/ml Blasticidin. Cells were passed every 3-4 days after detachment using a Trypsin solution. The quality of the cultured cells was guaranteed by vitality and contamination tests. The culture of the cells was performed as described in protocol D described above.
At least 18 hours prior to electrophysiological experiments the cells were detached by application of iced PBS (phosphate buffered saline) or Trypsin and replated on cover slips. 1 μg/ml Tet was added to the cells to induce hERG expression.
Activity of the cardiac hERG channel was investigated using the patch clamp technique in its whole cell mode. This means that the current needed for clamping the whole cell expressing the K^+-channel protein to a specific potential was measured. The pipettes used for patch clamping were made of borosilicate glass. Measurements were performed at room temperature (20-25° C.). In each experiment (i.e. each cell) only one concentration of the compound was investigated no cumulative dosages were performed. Each cell acted as its own control. […]
After the whole cell configuration was established a series of pulses was applied to check for hERG expression and to optimize amplifier settings. However, only the following measurements were used for data analysis: 15 test pulses (FIG. 4a and Table 6a) were applied at 0.1 Hz (series 1) under constant superfusion with bath solution. The protocol was initiated by a leak test at −40 mV (50 ms). […] The maximum hERG tail current amplitude was measured at −40 mV (tail current test, 1.5 sec.). Only cells generating tail current amplitudes between 300 pA and 10 nA were used for the experimental procedure.
After successful characterization of the current another 10 test pulses were applied at 0.1 Hz while the cell was superfused with bath solution (series 2). […]

[1] abbreviates: estimated by Hill fit with hill=1, ymax=100, tested at 10 μM, n=2, read-out: IC50 (μM) hERG.
Where [2] appears, read: patch clamp, read-out: hERG IC50.
[3] abbreviates: percent value, test concentration not given.

T1 sequence (Q12809 whole entry): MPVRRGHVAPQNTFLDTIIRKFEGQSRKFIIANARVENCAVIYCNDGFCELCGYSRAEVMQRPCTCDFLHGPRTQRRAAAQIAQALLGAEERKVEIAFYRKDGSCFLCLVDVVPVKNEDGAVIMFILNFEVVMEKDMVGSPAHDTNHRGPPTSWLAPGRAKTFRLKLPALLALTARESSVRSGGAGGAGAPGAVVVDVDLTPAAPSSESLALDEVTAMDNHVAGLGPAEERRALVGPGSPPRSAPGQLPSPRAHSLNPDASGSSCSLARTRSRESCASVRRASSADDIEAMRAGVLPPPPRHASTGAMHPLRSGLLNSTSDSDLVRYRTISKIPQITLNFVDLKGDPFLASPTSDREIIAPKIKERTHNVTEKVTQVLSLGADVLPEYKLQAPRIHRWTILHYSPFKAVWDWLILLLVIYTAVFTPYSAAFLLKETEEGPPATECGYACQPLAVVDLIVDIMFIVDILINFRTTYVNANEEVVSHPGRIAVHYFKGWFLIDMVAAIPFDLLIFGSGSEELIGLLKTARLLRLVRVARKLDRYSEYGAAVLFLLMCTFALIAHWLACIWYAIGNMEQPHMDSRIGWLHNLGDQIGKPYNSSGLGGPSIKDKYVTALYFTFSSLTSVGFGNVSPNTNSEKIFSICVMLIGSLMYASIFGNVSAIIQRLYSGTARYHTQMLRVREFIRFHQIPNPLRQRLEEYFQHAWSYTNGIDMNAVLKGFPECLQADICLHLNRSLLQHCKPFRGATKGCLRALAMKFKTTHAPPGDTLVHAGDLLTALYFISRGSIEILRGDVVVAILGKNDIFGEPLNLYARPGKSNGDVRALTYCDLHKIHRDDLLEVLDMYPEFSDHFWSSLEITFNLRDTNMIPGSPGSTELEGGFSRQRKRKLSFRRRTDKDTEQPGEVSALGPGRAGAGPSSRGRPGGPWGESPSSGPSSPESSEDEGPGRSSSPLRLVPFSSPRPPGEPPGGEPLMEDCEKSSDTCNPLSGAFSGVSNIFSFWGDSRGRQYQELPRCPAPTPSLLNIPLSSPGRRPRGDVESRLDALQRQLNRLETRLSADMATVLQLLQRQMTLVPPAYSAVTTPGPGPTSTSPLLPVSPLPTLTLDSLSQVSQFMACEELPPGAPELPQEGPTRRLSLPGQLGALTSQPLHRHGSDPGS

Take `Cc1nc(Nc2ccc(Cl)cc2)sc1C(=O)N[C@H](C)c1ccc2ccccc2c1` [Compound 52, 2-(4-chloro-phenylamino)-4-methyl-thiazole-5-carboxylic acid (R)-1-(2-naphtalen-2-yl-ethyl)-amide]: the IC50 (usually the concentration that inhibits the measured activity by half) is 24.2 µM under setting [1] and 24.2 µM under setting [2].

For the compound `Cc1nc(Sc2ccccc2)sc1C(=O)N[C@H]1CCC[C@@H]1OCc1ccccc1` [Compound 81, 4-methyl-2-phenylsulfanyl-thiazole-5-carboxylic acid ((1S,2S)-2-benzyloxycyclopent-1-yl) amide], under setting [3], the hERG is listed as 88%.

Regarding `Cc1nc(Nc2ccc(Br)cc2)sc1C(=O)N[C@@H](C)c1ccc2ccccc2c1` [Compound 18, 2-(4-bromo-phenylamino)-4-methyl-thiazole-5-carboxylic acid (S)-1-(naphthalen-2-yl)ethyl amide], the concentration for half-maximal inhibition (IC50) under setting [1] was 26.5 µM.

Take `COc1cccc([C@@H](C)NC(=O)c2sc(Nc3cc(Cl)ccc3OC)nc2C)c1` [Compound 34]: the IC50 under setting [1] was 8.73 µM.

With `COc1ccc(OC)c(Nc2nc(C)c(C(=O)N[C@@H]3CCC[C@H]3OCc3ccccc3)s2)c1` [Compound 33, 2-(2,5-dimethoxyphenylamino)-4-methylthiazole-5-carboxylic acid (1R,2R)-2-(benzyloxycyclopent-1-yl) amide], the concentration for half-maximal inhibition (IC50) under setting [1] is 33.5 µM.

As for `Cc1nc(Nc2ccc(Cl)cc2)sc1C(=O)N[C@@H]1CCC[C@H]1OCc1ccccc1` [Compound 30, 2-(4-chloro-phenylamino)-4-methyl-thiazole-5-carboxylic acid (1R,2R)-2-(benzyloxycyclopent-1-yl) amide], the IC50 under setting [1] was 11 µM and the IC50 under setting [2] is 11 µM.

On to `COc1ccccc1Nc1nc(C)c(C(=O)N[C@@H]2CCC[C@H]2OCc2ccccc2)s1` [Compound 31, 2-(2-methoxy-phenylamino)-4-methyl-thiazole-5-carboxylic acid (1R,2R)-2-(benzyloxycyclopent-1-yl) amide], for which the IC50 under setting [1] is 25.3 µM.

In turn, `Cc1nc(NC(=O)c2ccc(C(C)(C)C)cc2)sc1C(=O)N[C@H]1CCC[C@@H]1OCc1ccccc1` [Compound 180, 2-(4-tert-butyl-benzoylamino)-4-methyl-thiazole-5-carboxylic acid ((1S,2S)-2-benzyloxycyclopent-1-yl) amide] came in with a hERG under setting [3] of 64%.

For the compound `Cc1nc(Nc2ccc3c(c2)OCCO3)sc1C(=O)N[C@H]1CCC[C@@H]1OCc1ccccc1` [Compound 95], the hERG under setting [3] was found to be 76%.

For the compound `COc1ccccc1Nc1nc(C)c(C(=O)NCc2c(C)cccc2Cl)s1` [Compound 98, 2-(2-methoxy-phenylamino)-4-methyl-thiazole-5-carboxylic acid 2-chloro-6-methyl-benzylamide], under setting [3], the hERG was 38%.

With `COc1ccccc1Nc1nccc(C(=O)N[C@H]2CCC[C@@H]2OCc2ccccc2)n1` [Compound 76, 2-(2-methoxy-phenylamino)-pyrimidine-4-carboxylic acid ((1S,2S)-2-benzyloxycyclopent-1-yl) amide], the hERG under setting [3] is listed as 34%.

Take `COc1ccc(CNC(=O)c2sc(Nc3ccc(Br)cc3)nc2C)cc1` [Compound 60, 2-(4-bromo-phenylamino)-4-methyl-thiazole-5-carboxylic acid 4-methoxy-benzylamide]: the IC50 under setting [1] is 3 µM.

Turning to `COc1ccccc1Nc1nc(C)c(C(=O)NCc2ccc(C(C)(C)C)cc2)s1` [Compound 106, 2-(2-methoxy-phenylamino)-4-methyl-thiazole-5-carboxylic acid 4-tert-butyl-benzylamide], the hERG under setting [3] is given as 31%.

Consider `Cc1nc(Nc2ccc(Br)cc2)sc1C(=O)NCc1ccc(F)c(C(F)(F)F)c1` [Compound 63, 2-(4-bromo-phenylamino)-4-methyl-thiazole-5-carboxylic acid 4-fluoro-3-trifluoromethyl-benzylamide], for which the IC50 under setting [1] was 5.29 µM.

On to `Cc1nc(Nc2ccc(Br)cc2)sc1C(=O)N[C@H](C)c1ccc2ccccc2c1` [Compound 19, 2-(4-bromo-phenylamino)-4-methyl-thiazole-5-carboxylic acid (R)-1-(naphthalen-2-yl)ethyl amide], for which the IC50 under setting [1] is 90 µM.

`COc1ccccc1Nc1nc(C)c(C(=O)NCc2ccc(Br)cc2)s1` [Compound 108, 2-(2-methoxy-phenylamino)-4-methyl-thiazole-5-carboxylic acid 4-bromo-benzylamide] showed a hERG under setting [3] of 19%.

For the compound `Cc1nc(Nc2ccc(Br)cc2)sc1C(=O)NCc1ccc(N(C)C)cc1` [Compound 64, 2-(4-bromo-phenylamino)-4-methyl-thiazole-5-carboxylic acid 4-dimethylamino-benzylamide], the IC50 is, setting by setting: under setting [1], more than 100 µM; under setting [2], more than 100 µM.

As for `Cc1nc(Nc2ccc(Br)cc2)sc1C(=O)NCc1cccc2ccccc12` [Compound 56, 2-(4-bromo-phenylamino)-4-methyl-thiazole-5-carboxylic acid (naphtalen-1-yl-methyl)-amide], the IC50 by setting is: under setting [1], 7.04 µM; under setting [2], 7.04 µM.

As to `COc1cc(CNC(=O)c2sc(Nc3ccc(Br)cc3)nc2C)cc(OC)c1` [Compound 65, 2-(4-bromo-phenylamino)-4-methyl-thiazole-5-carboxylic acid 3,5-dimethoxy-benzylamide], under setting [1], the 50% inhibitory concentration (IC50) is 1.63 µM.

Under setting [3], `Cc1nc(Nc2cccc3cccnc23)sc1C(=O)N[C@H]1CCC[C@@H]1OCc1ccccc1` [Compound 94, 4-methyl-2-(quinolin-8-ylamino)-thiazole-5-carboxylic acid ((1S,2S)-2-benzyloxycyclopent-1-yl) amide] yielded a hERG of 69%.

`COc1ccccc1Nc1nc(C)c(C(=O)NCc2ccc3c(c2)CCO3)s1` [Compound 104, 2-(2-methoxy-phenylamino)-4-methyl-thiazole-5-carboxylic acid (2,3-dihydro-benzofuran-5-ylmethyl)-amide]: the hERG under setting [3] is on record as 43%.

Regarding `Cc1nc(Nc2ccc(Cl)cc2)sc1C(=O)N[C@@H](C)c1ccc2ccccc2c1` [Compound 54, 2-(4-chloro-phenylamino)-4-methyl-thiazole-5-carboxylic acid (S)-1-(2-naphtalen-2-yl-ethyl)-amide], the IC50 reads like this: under setting [1], 15.8 µM; under setting [2], 15.8 µM.

In the case of `COc1ccccc1Nc1nc(C)c(C(=O)N[C@@H](C)c2ccc3ccccc3c2)s1` [Compound 55, 2-(2-methoxy-phenylamino)-4-methyl-thiazole-5-carboxylic acid (S)-1-(2-naphtalen-2-yl-ethyl)-amide], under setting [1], the half-maximal inhibitory concentration (IC50) is 10.2 µM.

Under setting [3], `COc1ccccc1Nc1nc(C)c(C(=O)NCc2ccc(N(C)C)cc2)s1` [Compound 105, 2-(2-methoxy-phenylamino)-4-methyl-thiazole-5-carboxylic acid 4-dimethylamino-benzylamide] gave a hERG of 67%.

For the compound `Cc1nc(Nc2ccc3occc3c2)sc1C(=O)N[C@H]1CCC[C@@H]1OCc1ccccc1` [Compound 126, 2-(benzofuran-5-ylamino)-4-methyl-thiazole-5-carboxylic acid ((1S,2S)-2-benzyloxycyclopent-1-yl) amide], the hERG (at 1 μM) was found to be 74 at1 μM.

Turning to `Cc1nc(Nc2ccc(F)cc2)sc1C(=O)N[C@H](C)c1ccc2ccccc2c1` [Compound 16, 2-(4-fluoro-phenylamino)-4-methyl-thiazole-5-carboxylic acid (R)-1-(naphthalen-2-yl)ethyl amide], under setting [1], the half-inhibitory concentration (IC50) was 28 µM.

Consider `COc1ccccc1Nc1nc(C)c(C(=O)NCc2ccccc2SC)s1` [Compound 97], for which, under setting [3], the hERG is 55%.

With “2-(4-bromo-phenylamino)-4-methyl-thiazole-5-carboxylic acid 1,2,3,4-tetrahydroisoquinolinamide [Compound 66]”, the IC50 is 9.88 µM under setting [1] and 9.88 µM under setting [2].
